According to US8557864B2, “Agent having neurotrophic factor-like activity” (Nagoya Industrial Science Research Institute, priority 2007, dated 2013):

How the values were obtained:
MAP kinases = assay: Measurement of activation of MAP kinases in cultured nerve cells (western immunoblotting); assay type: cell-based; settings: fetal rat cerebral cortex nerve cells, compound 500 μg/ml, 30 minutes, relative to control
Description: Activation of MAP kinases was measured on respective compounds in Table 1 including the compound obtained in Production Example with western immunoblotting as follows. Nerve cells were dispersed from a cerebral cortex of a 17-day-old fetal rat and the nerve cells were cultured in a Dulbecco's modified eagle medium (DMEM) containing 5%; fetal bovine serum for 1 day. A culture solution was exchanged to a serum-free medium (B27 supplement added Neurobasal, Invitrogen Corporation), and the nerve cells were cultured in a culture petri dish coated with polyornithine at a density of 20,000 to 40,000 cells/cm^2. Three days later, each of the compounds in Table 1 was added thereto, and culture for 30 minutes was continued. Then, cells were recovered on ice with a solution of a Tris-HCL buffer as a base containing a phosphatase inhibitor. The protein concentration of the obtained cell extraction was determined using a BCA Protein Assay Kit (TAKARABIO INC.), a constant amount (3 μg for MAP kinase measurement, 5 μg for phosphorylated MAP kinase measurement) of the protein was electrophoresed with a polyacrylic amide gel. The protein was transcribed to a PVDF membrane from the gel after electrophoresis, and western immunoblotting was carried out using the primary antibodies: an anti-MAP kinase antibody (Cell Signaling Technology, Inc.) and an antiphosphorylated MAP kinase antibody (Cell Signaling Technology, Inc.), respectively. Subsequently, an enzyme activity was subjected to color development by being reacted with the secondary antibody: an alkaline phosphatase labeled anti-rabbit IgG antibody (Promega KK) to measure MAP kinases and phosphorylated MAP kinases. In addition, each compound was dissolved in 0.7% DMSO and adjusted to have a concentration of 500 μg/ml. A control was added with a phosphoric acid buffer containing 0.1% DMSO in the same amount as the compound.
The above obtained concentration measurement of the electrophoresis gel band was digitalized by calculating an intensity with Image J (BioArts International, Inc.). The numerical value of MAP kinases of each compound was divided by the numerical value of the control's MAP kinases, and the numerical value of phosphorylated MAP kinases of each compound was divided by the numerical value of the control's phosphorylated MAP kinases to find a ratio of the MAP kinases of each compound to the control and a ratio of the phosphorylated MAP kinases of the each compound to the control. Then, the obtained ratio of the phosphorylated MAP kinases to the control was divided by the obtained ratio of the MAP kinases to the control to find a ratio of the phosphorylated MAP kinases to the MAP kinases and graphs were formed and shown in FIGS. 1 to 3. Compound 1, compound 6, compound 11, compound 16, compound 21 and compound 36 in Table 1 were used from products made by Wako Pure Chemical Industries, Ltd.

MAP kinase = assay: Phosphorylated MAP kinase amount in cortex of frontal lobe and hippocampus of stressed mice; assay type: in vivo; settings: 24 hours after 3 weeks of stress with 20, 100, 500 μg/kg, at least one administration example
Description: After 24 hours from completion of stress for 3 weeks in the same method as described in Example 2, mice administered with the compound 8 in doses of 0, 20, 100 and 500 μg/kg respectively at the same time as stress and non-stressed mice administered with only a phosphoric acid buffer containing 0.1% DMSO were sacrificed and the cortexes of frontal lobes and hippocampi were excised respectively, and thereto were added RIPA buffers in 19 times of an amount of each wet weight.
Then, sonication was performed by an ultrasonic grinder until tissues cannot be seen, centrifuged at 12000 rpm for 15 minutes, and the supernatant was recovered to form a tissue protein extraction solution. The protein concentration of the extraction solution was measured using a BCA Protein Assay Kit (TAKARA BIO INC.), each of extraction solutions containing 3 μg for a MAP kinase and 5 μg for a phosphorylated MAP kinase was added with a ⅓ amount of a sample buffer for electrophoresis at 4 times of a concentration, and a 1/10 amount of 2-mercaptoethanol and thermally treated at 95° C. for 5 minutes and subjected to electrophoresis with a 10% SDS polyacrylic amide gel. […]

CCCCCCC/C=C/C(=O)OCC [Compound 8, trans-2-decenoic acid ethyl ester]
ratio of phosphorylated MAP kinases to MAP kinases (MAP kinases): twice or more
ratio of phosphorylated MAP kinases to MAP kinases (MAP kinases; listed as trans-2-decenic acid ethyl ester): 11 times
phosphorylated MAP kinase amount compared to control (0 μg/kg) (MAP kinase): significantly increased
